# Source: ChEMBL document CHEMBL1201862, “PubChem BioAssay data set” (2004)
# Active and inactive are the calls of the source.
# Assays:
# [1] = target: Cytochrome P450 2C9 (Homo sapiens, UniProt P11712); conditions: Potency
# [2] = target: Cytochrome P450 2C19 (Homo sapiens, UniProt P33261); assay: qHTS Assay for Inhibitors and Substrates of Cytochrome P450 2C19. [Related pubchem assays: 410 ]; type: ADME; conditions: read-out: Potency
# [3] = target: E3 ubiquitin-protein ligase Mdm2 (Homo sapiens, UniProt Q00987); assay: MDM2-luc reporter signal enhancers, multi-concentration potency testing, MDM2 ubiquitin-protein ligase inhibitor program, whole-cell format, luminescence detection, 384-well microplate (AID 1394); type: functional;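 note: MDM2 E3 inhibitors raise luminescence so EC50 is for signal enhancement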
# E3 ubiquitin-protein ligase Mdm2, sequence (Q00987 whole entry): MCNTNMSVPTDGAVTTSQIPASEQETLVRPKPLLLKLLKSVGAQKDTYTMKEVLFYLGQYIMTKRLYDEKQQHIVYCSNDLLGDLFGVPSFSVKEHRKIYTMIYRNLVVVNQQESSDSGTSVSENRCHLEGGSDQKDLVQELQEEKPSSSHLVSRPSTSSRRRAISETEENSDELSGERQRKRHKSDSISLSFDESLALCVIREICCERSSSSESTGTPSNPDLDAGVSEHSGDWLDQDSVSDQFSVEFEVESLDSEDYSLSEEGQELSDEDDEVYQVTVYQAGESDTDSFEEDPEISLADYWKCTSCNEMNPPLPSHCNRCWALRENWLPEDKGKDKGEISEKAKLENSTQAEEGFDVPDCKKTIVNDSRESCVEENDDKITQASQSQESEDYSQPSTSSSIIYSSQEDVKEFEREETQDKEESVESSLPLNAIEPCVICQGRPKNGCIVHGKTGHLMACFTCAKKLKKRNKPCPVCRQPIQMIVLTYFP
# [4] = target: DNA dC->dU-editing enzyme APOBEC-3A (Homo sapiens, UniProt P31941); assay: Dose Response confirmation of small molecule APOBEC3A DNA Deaminase Inhibitors via a fluorescence-based single-stranded DNA deaminase assay. [Related pubchem assays (depositor defined):AID493011, AID493024]; type: functional
# DNA dC->dU-editing enzyme APOBEC-3A, sequence (P31941 whole entry): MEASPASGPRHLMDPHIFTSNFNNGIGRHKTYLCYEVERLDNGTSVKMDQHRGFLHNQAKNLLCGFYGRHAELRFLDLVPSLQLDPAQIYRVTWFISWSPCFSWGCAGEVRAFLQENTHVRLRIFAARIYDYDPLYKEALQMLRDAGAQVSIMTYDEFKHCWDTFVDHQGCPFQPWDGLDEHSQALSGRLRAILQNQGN
# [5] = target: T1, Estrogen receptor beta (Homo sapiens, UniProt Q92731);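 note: recombinant ER-beta bound to coactivator SRC1 peptide in presence of estradiol agonist; inhibitors block coactivator peptide binding and lower the FRET signal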
# T1 sequence (Q92731 whole entry): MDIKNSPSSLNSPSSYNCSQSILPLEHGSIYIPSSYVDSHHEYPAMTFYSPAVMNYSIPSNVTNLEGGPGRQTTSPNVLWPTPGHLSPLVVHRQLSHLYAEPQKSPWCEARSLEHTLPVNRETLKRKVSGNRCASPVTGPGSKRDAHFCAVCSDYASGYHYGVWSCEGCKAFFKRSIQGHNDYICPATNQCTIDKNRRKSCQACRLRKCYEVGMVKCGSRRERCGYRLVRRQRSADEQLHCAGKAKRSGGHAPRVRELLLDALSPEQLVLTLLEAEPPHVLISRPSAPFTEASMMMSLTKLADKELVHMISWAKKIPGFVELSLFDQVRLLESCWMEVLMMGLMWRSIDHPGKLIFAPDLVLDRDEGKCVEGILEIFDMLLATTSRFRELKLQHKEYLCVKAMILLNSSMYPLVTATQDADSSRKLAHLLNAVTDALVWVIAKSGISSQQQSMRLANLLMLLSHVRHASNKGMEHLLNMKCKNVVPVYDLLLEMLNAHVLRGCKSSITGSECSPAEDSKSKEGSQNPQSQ
# [6] = target: DNA dC->dU-editing enzyme APOBEC-3G (Homo sapiens, UniProt Q9HC16); type: functional;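 note: Dose-response counterscreen measuring inhibition of APOBEC3G DNA deaminase activity, run while confirming APOBEC3A inhibitors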
# DNA dC->dU-editing enzyme APOBEC-3G, sequence (Q9HC16 whole entry): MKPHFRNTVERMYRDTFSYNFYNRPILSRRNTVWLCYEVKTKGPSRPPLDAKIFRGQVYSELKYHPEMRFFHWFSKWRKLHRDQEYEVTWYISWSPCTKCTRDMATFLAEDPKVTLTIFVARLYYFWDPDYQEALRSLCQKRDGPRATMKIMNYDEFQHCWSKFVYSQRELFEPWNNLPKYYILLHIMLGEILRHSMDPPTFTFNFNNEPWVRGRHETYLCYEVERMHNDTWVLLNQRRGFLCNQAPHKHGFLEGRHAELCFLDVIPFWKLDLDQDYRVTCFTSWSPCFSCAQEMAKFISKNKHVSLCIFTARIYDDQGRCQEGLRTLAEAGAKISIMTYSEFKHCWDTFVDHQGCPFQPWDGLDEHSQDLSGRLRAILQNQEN
# [7] = target: T1, Estrogen receptor beta; assay: blockers of SRC-3 recruitment to ERβ – biochemical, ELISA, streptavidin-HRP readout, orthogonal assay, confirmation (AID 1060)
# [8] = target: T2, Streptokinase A (Streptococcus pyogenes serotype M1, UniProt P10520); assay: viability-normalized secreted streptokinase activity reduction – plasminogen activation absorbance, OD405, dose response (AID 1914); type: functional, Streptococcus pyogenes M1 GAS;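 note: secreted streptokinase activity via plasminogen activation per viability signal from cell pellet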
# T2 sequence (P10520 whole entry): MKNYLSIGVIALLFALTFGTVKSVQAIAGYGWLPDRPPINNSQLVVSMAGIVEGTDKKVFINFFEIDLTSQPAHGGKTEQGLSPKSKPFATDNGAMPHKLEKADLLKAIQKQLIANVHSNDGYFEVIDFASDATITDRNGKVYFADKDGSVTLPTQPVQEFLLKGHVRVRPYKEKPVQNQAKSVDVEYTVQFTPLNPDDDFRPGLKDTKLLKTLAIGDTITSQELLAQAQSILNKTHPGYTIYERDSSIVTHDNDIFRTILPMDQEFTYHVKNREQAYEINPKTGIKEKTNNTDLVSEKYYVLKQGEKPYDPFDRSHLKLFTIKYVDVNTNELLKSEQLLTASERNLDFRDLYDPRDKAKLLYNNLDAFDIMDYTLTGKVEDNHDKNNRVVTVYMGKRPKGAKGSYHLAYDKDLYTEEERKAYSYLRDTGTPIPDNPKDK
# [9] = target: Heat shock protein HSP 90-alpha (Homo sapiens, UniProt P07900); assay: Luminescence-based dose response biochemical high throughput screening assay for inhibitors of the Heat Shock Protein 90 (HSP90). [Related pubchem assays: 1831 (Summary AID.), 1846 (Confirmation screen.), 1789 (Primary screen.)]
# [10] = system: Streptococcus; assay: GAS UMAA2166 growth inhibition – luminescence, BacTiterGlo, counter-screen for streptokinase expression inhibitor project, dose response (AID 1915); type: functional, organism-based;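 note: potency for reduction of bacterial viability or growth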
# [11] = system: Streptococcus sp. 'group A'; assay: Streptococcus pyogenes SK(-)GAS viability under kanamycin – luminescence, BacTiterGlo, confirmation, counter-screen for streptokinase expression inhibitor project, dose response (AID 1900); type: functional, organism-based
# [12] = target: Voltage-gated inwardly rectifying potassium channel KCNH2 (Homo sapiens, UniProt Q12809); assay: concentration-dependent hERG rescue from blockers – cell-based, thallium flux, dose response (AID 2121); type: ADME
# Voltage-gated inwardly rectifying potassium channel KCNH2, sequence (Q12809 whole entry): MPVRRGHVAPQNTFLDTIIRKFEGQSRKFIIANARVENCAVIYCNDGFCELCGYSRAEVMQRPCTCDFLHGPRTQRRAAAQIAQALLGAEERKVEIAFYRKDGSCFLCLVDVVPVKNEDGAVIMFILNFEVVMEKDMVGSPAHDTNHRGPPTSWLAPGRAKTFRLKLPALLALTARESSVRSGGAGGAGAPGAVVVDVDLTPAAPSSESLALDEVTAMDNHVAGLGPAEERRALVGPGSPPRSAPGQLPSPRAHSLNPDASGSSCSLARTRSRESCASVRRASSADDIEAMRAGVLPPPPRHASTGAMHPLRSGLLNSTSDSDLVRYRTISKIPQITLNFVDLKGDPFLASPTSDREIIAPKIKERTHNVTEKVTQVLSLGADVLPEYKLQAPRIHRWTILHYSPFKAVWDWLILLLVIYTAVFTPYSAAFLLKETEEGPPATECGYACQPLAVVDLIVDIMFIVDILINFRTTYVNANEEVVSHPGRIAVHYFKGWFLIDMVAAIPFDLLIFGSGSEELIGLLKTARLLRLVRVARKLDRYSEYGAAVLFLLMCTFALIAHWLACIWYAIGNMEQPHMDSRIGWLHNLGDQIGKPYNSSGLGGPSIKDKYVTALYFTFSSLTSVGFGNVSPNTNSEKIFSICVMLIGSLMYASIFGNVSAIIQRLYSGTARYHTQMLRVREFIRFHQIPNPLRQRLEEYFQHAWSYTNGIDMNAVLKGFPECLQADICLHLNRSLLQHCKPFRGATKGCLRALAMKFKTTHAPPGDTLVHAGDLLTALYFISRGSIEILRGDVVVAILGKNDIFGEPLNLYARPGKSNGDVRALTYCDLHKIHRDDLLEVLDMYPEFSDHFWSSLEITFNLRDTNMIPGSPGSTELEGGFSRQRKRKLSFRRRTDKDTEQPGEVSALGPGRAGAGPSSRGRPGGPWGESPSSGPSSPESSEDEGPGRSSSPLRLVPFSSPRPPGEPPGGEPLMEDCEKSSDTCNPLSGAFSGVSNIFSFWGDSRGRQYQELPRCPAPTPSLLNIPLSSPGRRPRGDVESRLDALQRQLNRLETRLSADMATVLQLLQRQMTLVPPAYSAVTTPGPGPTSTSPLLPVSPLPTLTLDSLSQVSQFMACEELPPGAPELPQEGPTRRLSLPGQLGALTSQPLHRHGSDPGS
# [13] = fluconazole-exposed Candida albicans growth modulators – fluorescence, retest, confirmation (AID 2467); type: functional, cell-based
# [14] = NIH-3T3 fibroblast cytotoxicity, dose response, cytotoxicity control, cell-based, fluorescence, Alamar Blue, secondary assay (AID 2327); type: functional;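 note: NIH-3T3 mouse fibroblasts cultured with fluconazole at 8 µg/mL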
# Cytochrome P450 2C19, sequence (P33261 whole entry): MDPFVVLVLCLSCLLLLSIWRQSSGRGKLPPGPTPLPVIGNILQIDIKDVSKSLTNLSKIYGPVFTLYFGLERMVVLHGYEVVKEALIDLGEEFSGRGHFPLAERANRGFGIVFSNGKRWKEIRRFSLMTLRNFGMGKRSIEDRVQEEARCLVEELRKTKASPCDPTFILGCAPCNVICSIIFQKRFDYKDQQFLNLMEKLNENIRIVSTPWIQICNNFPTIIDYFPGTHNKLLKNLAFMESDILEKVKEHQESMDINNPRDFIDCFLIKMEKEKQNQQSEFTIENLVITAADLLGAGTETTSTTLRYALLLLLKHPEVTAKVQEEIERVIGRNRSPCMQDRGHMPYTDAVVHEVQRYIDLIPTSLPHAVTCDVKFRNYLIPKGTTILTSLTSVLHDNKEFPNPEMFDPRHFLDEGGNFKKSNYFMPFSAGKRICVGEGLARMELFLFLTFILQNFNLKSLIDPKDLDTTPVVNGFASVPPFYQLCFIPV
# Cytochrome P450 2C9, sequence (P11712 whole entry): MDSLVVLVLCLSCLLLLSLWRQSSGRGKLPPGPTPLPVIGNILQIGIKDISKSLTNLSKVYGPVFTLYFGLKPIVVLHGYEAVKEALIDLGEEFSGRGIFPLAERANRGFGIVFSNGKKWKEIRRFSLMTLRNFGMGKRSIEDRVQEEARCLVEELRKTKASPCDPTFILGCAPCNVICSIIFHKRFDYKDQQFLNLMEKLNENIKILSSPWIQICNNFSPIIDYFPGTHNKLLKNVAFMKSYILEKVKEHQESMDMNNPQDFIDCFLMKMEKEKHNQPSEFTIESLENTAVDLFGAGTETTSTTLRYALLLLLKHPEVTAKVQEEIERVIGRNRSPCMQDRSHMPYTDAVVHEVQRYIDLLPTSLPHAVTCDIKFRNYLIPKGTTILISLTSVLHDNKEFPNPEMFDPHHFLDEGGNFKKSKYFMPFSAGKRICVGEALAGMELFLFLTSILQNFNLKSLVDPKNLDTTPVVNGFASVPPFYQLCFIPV
structure (smiles),measurement,setting,value
CC(=O)[C@H]1[C@H]2[C@H](C(=O)[C@@H]3OC[C@H]2O3)[C@@H]2c3ccccc3C=CN12,AC50,[1],31.6 µM (inconclusive)
same,AC50,[2],31.6 µM (inconclusive)
Cc1ccc(NC(=O)CCC2CC(C)(C)OC2=O)cc1 (centres undefined),EC50,[3],777 µM (not active)
O=C(Cc1cccs1)Nc1nnc(Cc2ccccc2)s1,IC50,[4],12 µM (active)
same,IC50,[5],1.7 µM (active)
same,IC50,[6],25.3 µM (active)
same,IC50,[7],14.4 µM (not active)
CCOC(=O)c1csc(NC(=O)c2ccc3c(c2)OCCO3)n1,EC50,[8],> 150 µM (not active)
same,IC50,[9],1.23 µM (active)
same,EC50,[10],> 150 µM (not active)
same,EC50,[11],> 150 µM (not active)
O=C(Nc1nc(=O)c2ccccc2s1)c1ccc(Cl)cc1,EC50,[12],0.84 µM (active)
same,EC50,[13],> 38 µM (not active)
same,EC50,[14],> 150 µM (inactive)
